1 compound from publication PMC9458111, “New 1,2,3-Triazole-Coumarin-Glycoside Hybrids and Their 1,2,4-Triazolyl Thioglycoside Analogs Targeting Mitochondria Apoptotic Pathway: Synthesis, Anticancer Activity and Docking Simulation” (Molecules, 2022) can be followed below.

The test system of data set [1] is human breast cancer (MCF-7 cell lines). As to the kind of experiment: MTT cytotoxicity assay, MCF-7. The data set is classed as cell-based. As to the method: (§1) The synthesized compounds were studied for their cytotoxic activity against several human cancer cell lines, namely human osteosarcoma (HOS cell lines), human breast adenocarcinoma (MDA-MB-231 cell lines), human breast cancer (MCF-7 cell lines), human colorectal adenocarcinoma (Caco-2 cell lines) and human colon cell line (HCT-116 cell lines) using MTT assay at 100 µM, and the results were outlined as shown in Table 1.
(§2) Human osteosarcoma (HOS cell line), human breast adenocarcinoma (MDA-MB-231cell lines), human breast cancer (MCF-7 cell lines), human colorectal adenocarcinoma (Caco2 cell lines), human colon cell line (HCT-116 cell lines), normal human cell lines (BJ-1), and “a telomerase immortalized normal foreskin fibroblast cell line” were obtained from Karolinska Center, Department of Oncology and Pathology, Karolinska Institute and Hospital, Stockholm, Sweden.
(§3) Following culturing for 10 days, the cells were seeded at concentration of 10 × 10^3 cells per well in case of MCF-7 & MDA, 20 × 10^3 cells/well in a fresh complete growth medium in case of HCT-116, Caco2, & HOS and 40 × 10^3 cells/well in case of BJ-1 at 37 °C for 24 h in a water jacketed carbon dioxide incubator. After 48 h’ incubation, the medium was aspirated, and then 40 μl MTT salt (2.5 mg/mL) were added for a further 4 h; 200 μl 10% sodium dodecyl sulphate (SDS) in deionized water were added to each well and incubated overnight at 37 °C. The absorbance was measured at 595 nm with reference 690 nm. Doxorubicin was used as positive control, and 0.5% DMSO was used as negative control. IC50 values were calculated, using a probit analysis, and by utilizing the SPSS computer program (SPSS for Windows, statistical analysis software package/version 9/1989 SPSS Inc., Chicago, IL, USA).

Data set [2] relates to human osteosarcoma (HOS cell lines). Put plainly: MTT cytotoxicity assay, HOS. The data set is classed as cell-based. To be noted: 48 h. As to the method: as §1, §2, §3
The target of data set [3] is VEGFR-2 (Homo sapiens, UniProt P35968). Put plainly: VEGFR-2 inhibitory assay (ELISA). To be noted: mean of three values; read-out: IC50 (Mean ± SEM), VEGFR-2. The class given is biochemical. As to the method:
The cells were harvested, and the homogenates were prepared in saline using a tight pestle homogenizer until complete cell disruption. The kit uses a double-antibody sandwich enzyme-linked immunosorbent assay (ELISA) to determine the level of human VEGFR-2 in samples. A monoclonal antibody for VEGFR-2 was pre-coated onto 96-well plates. The test samples are added to the wells, and a biotinylated detection polyclonal antibody from goat specific for VEGFR-2 was added subsequently followed by washing with PBS buffer. Avidin-Biotin-Peroxidase complex was added, and the unbound conjugates were washed away with PBS buffer. HRP substrate TMB was used to visualize HRP enzymatic reaction. TMB was catalyzed by HRP to produce a blue color product that changed into yellow after adding acidic stop solution. The density of yellow color is proportional to the human VEGFR-2 amount of the sample captured in the plate. The chroma of color and the concentration of the human VEGFR-2 of the samples were positively correlated, and the optical density was determined at 450 nm. The level of human VEGFR-2 in samples was calculated (pg/ml) as duplicate determinations from the standard curve. Percent inhibition was calculated in comparison to control untreated cells.

For data set [4], the system named is human breast adenocarcinoma (MDA-MB-231 cell lines). As to the kind of experiment: MTT cytotoxicity assay, MDA-MB-231. The data set is classed as cell-based. The settings on record: MDA-MB-231, 48 h. The method, then:
as §1, §2, §3

The subject of data set [5] is MCF-7 cells. Put plainly: Apoptosis detection, Annexin V-FITC flow cytometry. The class given is cell-based, human. The method, then:
Cell cycle analysis and apoptosis detection were carried out by flow cytometry. MCF-7 cells were seeded at 1–5 × 10^4 and incubated at 37 °C, 5% CO2 overnight. After treatment with the tested compound 10, for 24 h, cell pellets were collected and centrifuged (300× g, 5 min). For cell cycle analysis, cell pellets were fixed with 70% ethanol on ice for 15 min and collected again [54]. The collected pellets were incubated with propidium iodide (PI) staining solution at room temperature for 1 h. Apoptosis detection was performed by Annexin V-FITC apoptosis detection kit (BioVision, Inc, Milpitas, CA, USA) following the manufacturer’s protocol. The samples were analyzed using FACS Calibur flow cytometer (BD Biosciences, San Jose, CA).
Figure 5 Cell cycle analysis and the effect of the target 10 on the percentage of V-FITC-positive annexin staining in MCF-7 cells in comparison with the control. TEXT PRINTED IN THE PICTURE: (C) cpd10: MCF7: 6.07%; MCF7: 18.11%; MCF7: 25.44% | (D) cpd10: MCF7: %DIP G1 41.96%; MCF7: %DIP G2/M 6.61%; MCF7: %DIP S 51.43%

The target in data set [6] is CDK-2/cyclin A2 (Homo sapiens, UniProt P24941). As to the kind of experiment: CDK-2/cyclin A2 inhibitory assay (ELISA). The class given is biochemical. The settings on record: mean of three values; read-out: IC50 (Mean ± SEM), CDK-2/Cyclin A2. The method, then: Assay of CDK-2/cyclin A2 was achieved through ELISA using an affinity tag labeled capture antibody. […] After the incubation period, the unrestrained substance has been discarded, and the wells have been washed. The added TMB (3,3′,5,5′-tetramethylbenzidine) substrate was prompted by Horseradish peroxidase (HRP), and blue coloration appeared. This reaction was stopped through the addition of stop solution to complete changing in colour from blue to yellow. The created signals were equivalent to the quantity of bound analyte, and the Robonik P2000 ELISA reader was used to record the intensity at a certain wavelength (450 nm).

Data set [7] relates to human colorectal adenocarcinoma (Caco-2 cell lines). As to the kind of experiment: MTT cytotoxicity assay, Caco-2. The class given is cell-based. To be noted: Caco-2, 48 h. The method, then:
as §1, §2, §3

Data set [8] has as its system Bcl-2 protein in MCF-7 cells. Put plainly: Bcl-2 protein level in MCF-7 cells (ELISA). The data set is classed as cell-based, human. To be noted: MCF-7, 19.6 µM (IC50), 24 h. The method, then: Referring to the cytotoxicity results, the 1,2,4-triazole-thioglycoside derivative 10 has a mitochondria-apoptotic effect on breast cancer cells through reduction of MTT by a mitochondrial enzyme. […] Along with that, such derivative elevated the release of cytochrome c into the cytosol in the treated MCF-7, in comparison with untreated one from 0.176 to 0.766 ng/ml due to disturbing mitochondrial outer membrane permeability (MOMP). In addition, the target 10 achieved better results than those afforded by from the standard 5-fluorouracil. Moreover, the level of caspase-7 was elevated in treated cells with the target 10 rather than that with 5-fluorouracil or the untreated cells as shown in Figure 4.
Bcl-2 (ng/mL) in the samples and standards were estimated as reported. A biotin-conjugated antibody was added followed by streptavidin-HRP. The reaction is then terminated by adding acid and absorbance was measured at 450 nm.
Figure 4 Levels of Bax, Bcl-2, Bax/Bcl-2 ratio, cytochrome c and caspase-7 protein in MCF-7 cells after treatment with compound 10 and the standard drug for 24 h compared with the untreated one, 5-flu: 5-fluorouracil as a reference drug.

VEGFR-2, sequence (P35968 20-1356): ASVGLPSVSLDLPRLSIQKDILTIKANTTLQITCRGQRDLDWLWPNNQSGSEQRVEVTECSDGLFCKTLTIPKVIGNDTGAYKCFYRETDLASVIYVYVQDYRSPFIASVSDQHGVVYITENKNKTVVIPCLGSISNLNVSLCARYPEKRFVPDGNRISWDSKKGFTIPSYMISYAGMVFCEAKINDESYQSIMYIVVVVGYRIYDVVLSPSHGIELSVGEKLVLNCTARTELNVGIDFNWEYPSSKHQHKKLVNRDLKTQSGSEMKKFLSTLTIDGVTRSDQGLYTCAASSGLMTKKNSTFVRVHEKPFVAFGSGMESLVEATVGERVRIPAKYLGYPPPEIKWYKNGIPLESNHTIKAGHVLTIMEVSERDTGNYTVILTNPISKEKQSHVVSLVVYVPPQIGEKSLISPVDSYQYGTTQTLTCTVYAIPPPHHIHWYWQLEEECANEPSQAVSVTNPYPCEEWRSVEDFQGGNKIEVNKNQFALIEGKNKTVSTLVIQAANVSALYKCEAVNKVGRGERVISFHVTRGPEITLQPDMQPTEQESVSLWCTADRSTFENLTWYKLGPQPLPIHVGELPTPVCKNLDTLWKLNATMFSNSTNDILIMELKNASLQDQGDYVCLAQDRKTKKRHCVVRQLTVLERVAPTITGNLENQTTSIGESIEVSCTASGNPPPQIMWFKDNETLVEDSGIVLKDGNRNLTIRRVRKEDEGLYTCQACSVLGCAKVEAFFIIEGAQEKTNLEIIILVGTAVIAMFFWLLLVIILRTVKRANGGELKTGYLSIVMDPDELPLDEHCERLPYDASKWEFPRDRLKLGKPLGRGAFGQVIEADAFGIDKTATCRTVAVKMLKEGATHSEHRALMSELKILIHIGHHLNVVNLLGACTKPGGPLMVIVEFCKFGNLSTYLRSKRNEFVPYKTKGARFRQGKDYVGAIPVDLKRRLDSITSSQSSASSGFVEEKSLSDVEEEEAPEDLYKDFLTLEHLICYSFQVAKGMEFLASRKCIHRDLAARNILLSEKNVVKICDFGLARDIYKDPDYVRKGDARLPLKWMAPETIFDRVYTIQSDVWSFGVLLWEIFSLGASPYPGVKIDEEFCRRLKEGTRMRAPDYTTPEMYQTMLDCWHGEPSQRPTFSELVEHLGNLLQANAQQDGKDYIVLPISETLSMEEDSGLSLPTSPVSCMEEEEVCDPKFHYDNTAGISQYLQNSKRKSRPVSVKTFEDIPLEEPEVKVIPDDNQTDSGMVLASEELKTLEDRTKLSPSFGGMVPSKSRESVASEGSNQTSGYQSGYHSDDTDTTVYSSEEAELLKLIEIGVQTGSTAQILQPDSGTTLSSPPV

For the compound `CCn1c(COc2ccc3c(-c4ccccc4)cc(=O)oc3c2)nnc1SC1OCC(O)C(O)C1O` [Compound 10, 4-Phenyl-7-((4-ethyl-5-(1-(β-D-xylopyranosyl)thio)-4H-1,2,4-triazol-3-yl)meth-oxy)-2H-chromen-2-one], the melting point lay within 178 to 179 °C. This compound also had a cytotoxicity at 100 µM in [1] (MCF7, 48 h) of 66.3 ± 1%. This compound yielded an IC50 in [1] (MCF7, MTT, 0.78–100 µM, ± SD) of 19600 ± 700 nM. The cytotoxicity at 100 µM in data set [2] came out at 5.3 ± 0.2%. Moreover, in [3], the IC50 was found to be 790 ± 140 nM. Also, in data set [4], the cytotoxicity at 100 µM turned out to be 20.6 ± 0.5%. In data set [5] (MCF-7, 19.6 µM (IC50), 24 h, untreated 0.18), the Secondary late apoptosis is 18.11%. This compound also came in with an Early apoptosis in data set [5] (MCF-7, 19.6 µM (IC50), 24 h, untreated 0.47) of 25.44%. Moreover, in data set [5] (MCF-7, Figure 5C), the “Annexin V-FITC staining, third percentage not named in the picture text” value came to 6.07%. Also, the IC50 in data set [6] turned out to be 150 nM. The same compound gave a cytotoxicity at 100 µM in [7] of 0.7 ± 0.003%. In addition, the “Downregulation of anti-apoptotic Bcl-2 protein versus untreated cells” value in data set [8] was 5.3 folds.
